From ChEMBL document CHEMBL1201862, “PubChem BioAssay data set” (2004)
The source made the active and inactive calls.

Experiments:
[1] = biological target: T1, Corticotropin-releasing factor receptor 2/Corticotropin-releasing factor-binding protein (Homo sapiens, UniProt P24387+Q13324); assay: Dose Response confirmation of uHTS hits for small molecule antagonists of the CRF-binding protein and CRF-R2 receptor complex.; type: functional; conditions: read-out: IC50_Mean
T1 sequence (Q13324 whole entry): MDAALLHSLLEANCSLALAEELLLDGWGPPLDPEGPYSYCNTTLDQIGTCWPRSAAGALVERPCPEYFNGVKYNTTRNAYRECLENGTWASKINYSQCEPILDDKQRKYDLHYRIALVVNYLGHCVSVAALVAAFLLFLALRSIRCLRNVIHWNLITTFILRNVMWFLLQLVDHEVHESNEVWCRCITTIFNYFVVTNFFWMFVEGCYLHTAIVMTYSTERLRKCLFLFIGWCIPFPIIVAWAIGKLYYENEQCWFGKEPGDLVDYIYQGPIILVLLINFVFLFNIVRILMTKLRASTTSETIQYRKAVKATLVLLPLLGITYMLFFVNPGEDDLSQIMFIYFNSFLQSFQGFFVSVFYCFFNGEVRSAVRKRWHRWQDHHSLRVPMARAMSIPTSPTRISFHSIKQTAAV
T1 sequence (P24387 whole entry): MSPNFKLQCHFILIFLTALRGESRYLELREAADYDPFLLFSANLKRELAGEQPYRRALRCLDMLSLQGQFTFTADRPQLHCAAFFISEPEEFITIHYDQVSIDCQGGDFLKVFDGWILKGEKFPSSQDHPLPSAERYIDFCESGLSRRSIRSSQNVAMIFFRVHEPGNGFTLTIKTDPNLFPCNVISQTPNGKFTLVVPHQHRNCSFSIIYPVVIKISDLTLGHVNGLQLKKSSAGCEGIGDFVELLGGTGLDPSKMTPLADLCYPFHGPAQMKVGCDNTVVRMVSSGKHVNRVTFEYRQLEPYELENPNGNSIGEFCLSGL

[2] = biological target: T1, Corticotropin-releasing factor receptor 2/Corticotropin-releasing factor-binding protein; assay: activators of CRF receptor 2 with binding protein – uHTS hits, confirmation (AID 602473); type: functional; conditions: read-out: EC50_Mean
[3] = CRF-BP/CRF-R2 complex antagonists, dose response, cell-based, uHTS hits, 384-well (AID 651639); type: functional, Homo sapiens; conditions: read-out: IC50_Mean
[4] = biological target: Cytochrome P450 2C9 (Homo sapiens, UniProt P11712)
Cytochrome P450 2C9, sequence (P11712 whole entry): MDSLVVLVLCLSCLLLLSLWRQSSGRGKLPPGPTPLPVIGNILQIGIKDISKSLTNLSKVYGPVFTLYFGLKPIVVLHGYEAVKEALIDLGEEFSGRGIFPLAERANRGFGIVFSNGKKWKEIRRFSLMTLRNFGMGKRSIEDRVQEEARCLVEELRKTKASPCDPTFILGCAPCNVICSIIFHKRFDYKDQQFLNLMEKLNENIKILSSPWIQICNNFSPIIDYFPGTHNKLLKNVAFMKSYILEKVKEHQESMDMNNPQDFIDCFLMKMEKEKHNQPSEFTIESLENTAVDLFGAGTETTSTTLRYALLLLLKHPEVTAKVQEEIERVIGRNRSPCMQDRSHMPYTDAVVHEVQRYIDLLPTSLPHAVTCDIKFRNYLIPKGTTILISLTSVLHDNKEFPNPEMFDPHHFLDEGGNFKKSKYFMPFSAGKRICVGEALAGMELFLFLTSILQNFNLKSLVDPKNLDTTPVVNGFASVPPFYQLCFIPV

[5] = inhibitors of Vif binding to APOBEC3G peptide, primary screen, biochemical, TR-FRET, GST-Vif 1-94, biotin-A3G peptide, dose response retest (AID 1117319); type: functional;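 note: TR-FRET signal of purified GST-Vif binding a biotinylated A3G peptide; inhibitors lower the FRET signal by blocking Vif and A3G binding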
[6] = inhibitors of PGC1a acetylation in cells, dose response, cell-based, cherry-picked samples (AID 720514); type: functional;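 note: potency may reflect raised or lowered acetylation signal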
[7] = HEK293T cytotoxicity, dose response, cytotoxicity control for miR-122 modulator project, cell-based, inhibitor set, cherry-pick, set 2 (AID 720697); type: functional
[8] = cells
[9] = biological target: T2, Oxysterols receptor LXR-beta (Homo sapiens, UniProt P55055); type: functional, cell-based;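 note: Cell-based luminescence dose-response assay of agonist activity at LXR, run as a confirmatory counterscreen to a daf-12 agonist screen; HEK293 cells with Gal4-LXR fusion and GAL4-driven luciferase reporter; agonist potency from rising luciferase signal of a Gal4-LXR reporter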
T2 sequence (P55055 whole entry): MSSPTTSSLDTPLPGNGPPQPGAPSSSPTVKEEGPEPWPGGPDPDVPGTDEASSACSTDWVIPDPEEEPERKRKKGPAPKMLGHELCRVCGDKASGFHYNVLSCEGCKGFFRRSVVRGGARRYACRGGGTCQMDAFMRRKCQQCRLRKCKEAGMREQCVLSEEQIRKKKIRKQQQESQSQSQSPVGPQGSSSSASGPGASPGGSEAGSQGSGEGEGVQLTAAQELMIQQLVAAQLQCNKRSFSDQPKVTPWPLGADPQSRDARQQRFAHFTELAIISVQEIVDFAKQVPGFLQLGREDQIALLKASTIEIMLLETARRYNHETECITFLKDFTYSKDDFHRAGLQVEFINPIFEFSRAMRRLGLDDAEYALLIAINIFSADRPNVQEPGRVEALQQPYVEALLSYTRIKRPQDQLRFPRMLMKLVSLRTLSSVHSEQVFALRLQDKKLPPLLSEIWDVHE

[10] = HepG2 cell cytotoxicity, dose response, cytotoxicity control for non-replicating M. tuberculosis project (AID 489018); type: functional; conditions: Mycobacterium tuberculosis
[11] = cells; type: functional
[12] = Luminescence Cell-Based Dose Retest to Confirm Inhibitors of Cancer Stem Cells. [Related pubchem assays (depositor defined):AID2717, AID2721]; type: functional; conditions: Homo sapiens
[13] = control 3'UTR Renilla luciferase suppression, dose response, counter-screen for Shn3 inhibitor project, cell-based, Clone20-Shn3RL, cherry-picked (AID 624133); type: functional
[14] = biological target: T3, Heat shock factor protein 1 (Mus musculus, UniProt P38532); assay: HSF1 potentiators in luciferase reporter cells, confirmation, cell-based, NIH3T3, luminescence, dose retest (AID 435004); type: functional;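 note: stress induced by proteasome inhibitor MG132 added 30 min after compound; luciferase reporter driven by HSF1 response element in NIH3T3 cells; actives raise luminescence as potentiators of the MG132 stress response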
T3 sequence (P38532 whole entry): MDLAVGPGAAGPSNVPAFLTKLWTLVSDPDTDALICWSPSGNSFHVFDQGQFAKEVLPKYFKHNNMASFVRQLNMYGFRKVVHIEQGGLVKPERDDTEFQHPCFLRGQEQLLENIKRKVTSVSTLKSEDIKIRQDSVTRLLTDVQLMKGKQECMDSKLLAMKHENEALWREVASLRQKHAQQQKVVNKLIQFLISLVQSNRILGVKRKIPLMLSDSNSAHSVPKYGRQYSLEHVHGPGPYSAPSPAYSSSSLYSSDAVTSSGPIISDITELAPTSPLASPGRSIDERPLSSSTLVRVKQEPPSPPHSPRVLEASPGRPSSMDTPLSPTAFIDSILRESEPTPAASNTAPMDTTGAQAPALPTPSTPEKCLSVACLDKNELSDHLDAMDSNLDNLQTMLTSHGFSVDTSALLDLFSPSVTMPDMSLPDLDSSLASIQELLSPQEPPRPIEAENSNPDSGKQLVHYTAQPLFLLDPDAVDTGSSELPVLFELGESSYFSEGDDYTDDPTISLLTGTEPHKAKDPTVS

[15] = Shn3 3'UTR reporter inhibitors, dose response, cell-based, Clone20 osteoblasts, firefly luciferase, cherry-picked (AID 624132); type: functional;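 note: firefly luciferase luminescence from reporter carrying the Shn3 3'UTR in osteoblasts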
[16] = cytotoxicity in HEK-293T cells, dose response, cytotoxicity control for TCR NF-kB inhibitor project, luminescence, T-cell screen hits (AID 489026); type: functional, cell-based;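 note: cells exposed to compound about 14 hours before the viability readout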
[17] = HepG2 cell cytotoxicity, dose response, cytotoxicity control for Shn3 inhibitor project, CellTiter-Glo, cherry-picked (AID 624134); type: functional, cell-based
[18] = biological target: T4, Nuclear receptor subfamily 0 group B member 1 (Homo sapiens, UniProt P51843); type: functional, cell-based;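 note: HEK293T cells transfected with SF-1 and DAX-1 plus StAR promoter luciferase reporter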
T4 sequence (P51843 whole entry): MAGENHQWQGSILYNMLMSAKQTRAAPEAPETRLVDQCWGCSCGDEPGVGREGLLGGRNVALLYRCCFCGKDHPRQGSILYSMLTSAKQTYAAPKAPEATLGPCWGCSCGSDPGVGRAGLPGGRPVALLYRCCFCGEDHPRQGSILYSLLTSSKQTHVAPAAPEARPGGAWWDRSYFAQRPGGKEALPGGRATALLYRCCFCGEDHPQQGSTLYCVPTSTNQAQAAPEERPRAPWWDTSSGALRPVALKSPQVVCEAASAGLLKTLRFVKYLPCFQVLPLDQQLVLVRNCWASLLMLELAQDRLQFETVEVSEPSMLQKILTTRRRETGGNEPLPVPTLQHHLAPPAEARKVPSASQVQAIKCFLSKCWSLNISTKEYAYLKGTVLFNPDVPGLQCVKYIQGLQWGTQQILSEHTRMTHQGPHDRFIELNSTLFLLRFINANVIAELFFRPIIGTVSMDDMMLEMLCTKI

[19] = cells; type: functional, cell-based
[20] = biological target: Cytochrome P450 3A4 (Homo sapiens, UniProt P08684);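 note: CYP3A4 tested as one member of a cytochrome P450 panel screen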
Cytochrome P450 3A4, sequence (P08684 whole entry): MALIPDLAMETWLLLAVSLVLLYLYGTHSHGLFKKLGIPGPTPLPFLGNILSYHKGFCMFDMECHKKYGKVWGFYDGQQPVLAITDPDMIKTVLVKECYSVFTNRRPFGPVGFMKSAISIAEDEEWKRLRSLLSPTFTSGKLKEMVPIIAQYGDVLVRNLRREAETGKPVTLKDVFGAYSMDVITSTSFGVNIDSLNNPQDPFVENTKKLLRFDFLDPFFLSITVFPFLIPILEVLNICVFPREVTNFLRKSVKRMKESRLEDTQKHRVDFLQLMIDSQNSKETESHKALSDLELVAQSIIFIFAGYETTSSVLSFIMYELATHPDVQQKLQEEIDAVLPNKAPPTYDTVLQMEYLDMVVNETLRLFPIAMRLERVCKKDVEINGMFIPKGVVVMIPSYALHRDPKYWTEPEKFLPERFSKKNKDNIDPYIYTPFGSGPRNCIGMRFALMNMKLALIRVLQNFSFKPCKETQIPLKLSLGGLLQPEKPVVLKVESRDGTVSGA

[21] = biological target: Cytochrome P450 2D6 (Homo sapiens, UniProt P10635);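 note: CYP2D6 member of a cytochrome P450 panel assay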
Cytochrome P450 2D6, sequence (P10635 whole entry): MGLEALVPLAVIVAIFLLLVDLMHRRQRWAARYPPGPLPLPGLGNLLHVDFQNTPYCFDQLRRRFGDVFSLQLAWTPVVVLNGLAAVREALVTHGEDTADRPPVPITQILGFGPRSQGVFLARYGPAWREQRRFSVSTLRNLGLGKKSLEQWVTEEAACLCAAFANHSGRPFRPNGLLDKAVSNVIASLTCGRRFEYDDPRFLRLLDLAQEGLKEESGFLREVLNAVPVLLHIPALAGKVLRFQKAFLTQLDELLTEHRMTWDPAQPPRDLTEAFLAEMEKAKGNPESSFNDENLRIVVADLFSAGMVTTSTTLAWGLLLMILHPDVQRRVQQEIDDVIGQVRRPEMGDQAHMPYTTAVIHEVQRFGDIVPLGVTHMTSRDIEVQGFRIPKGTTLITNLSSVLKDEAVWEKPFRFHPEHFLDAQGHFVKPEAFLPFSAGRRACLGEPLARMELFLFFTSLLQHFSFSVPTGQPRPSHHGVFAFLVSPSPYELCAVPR

[22] = biological target: Glucose-6-phosphate 1-dehydrogenase (Homo sapiens, UniProt P11413); assay: human G6PD enzyme inhibitors, dose response, selectivity assay for P. falciparum G6PD inhibitor project, biochemical, fluorescence (AID 504792); type: functional
Glucose-6-phosphate 1-dehydrogenase, sequence (P11413 whole entry): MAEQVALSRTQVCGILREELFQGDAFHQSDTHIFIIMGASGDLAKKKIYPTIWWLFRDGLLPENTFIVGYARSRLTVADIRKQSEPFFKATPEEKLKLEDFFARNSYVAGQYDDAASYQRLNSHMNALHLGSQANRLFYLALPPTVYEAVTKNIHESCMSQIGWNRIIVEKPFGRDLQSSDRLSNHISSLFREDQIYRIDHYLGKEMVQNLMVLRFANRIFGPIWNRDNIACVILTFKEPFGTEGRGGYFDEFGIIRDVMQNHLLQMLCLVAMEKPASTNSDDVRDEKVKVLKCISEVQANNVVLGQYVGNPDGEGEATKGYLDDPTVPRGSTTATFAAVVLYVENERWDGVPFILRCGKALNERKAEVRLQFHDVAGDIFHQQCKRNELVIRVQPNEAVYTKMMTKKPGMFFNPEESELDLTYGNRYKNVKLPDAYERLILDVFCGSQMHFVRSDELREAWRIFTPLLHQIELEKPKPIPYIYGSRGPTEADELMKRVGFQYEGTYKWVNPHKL

[23] = biological target: Cytochrome P450 2C19 (Homo sapiens, UniProt P33261); assay: Cytochrome panel assay with activity outcomes. Panel member name: p450-cyp2c19 Compounds with AC50 equal or less than 10 uM are considered active; type: functional
Cytochrome P450 2C19, sequence (P33261 whole entry): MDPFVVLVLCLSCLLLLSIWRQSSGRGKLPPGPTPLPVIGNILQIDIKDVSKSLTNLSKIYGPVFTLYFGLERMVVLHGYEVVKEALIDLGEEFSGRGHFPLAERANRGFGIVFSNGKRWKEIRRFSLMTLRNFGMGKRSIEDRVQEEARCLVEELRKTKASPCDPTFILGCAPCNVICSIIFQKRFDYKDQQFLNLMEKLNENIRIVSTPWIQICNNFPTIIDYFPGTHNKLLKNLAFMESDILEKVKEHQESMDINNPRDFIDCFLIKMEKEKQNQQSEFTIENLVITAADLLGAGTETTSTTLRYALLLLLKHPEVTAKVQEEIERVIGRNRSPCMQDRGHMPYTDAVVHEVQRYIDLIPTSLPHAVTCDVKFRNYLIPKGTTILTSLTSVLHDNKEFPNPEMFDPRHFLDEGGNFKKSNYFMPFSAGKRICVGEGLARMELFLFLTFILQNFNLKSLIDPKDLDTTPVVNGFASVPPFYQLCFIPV

[24] = biological target: T5, Cytochrome P450 1A2 (Homo sapiens, UniProt P05177);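 note: PubChem cytochrome P450 panel assay, CYP1A2 panel member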
T5 sequence (P05177 whole entry): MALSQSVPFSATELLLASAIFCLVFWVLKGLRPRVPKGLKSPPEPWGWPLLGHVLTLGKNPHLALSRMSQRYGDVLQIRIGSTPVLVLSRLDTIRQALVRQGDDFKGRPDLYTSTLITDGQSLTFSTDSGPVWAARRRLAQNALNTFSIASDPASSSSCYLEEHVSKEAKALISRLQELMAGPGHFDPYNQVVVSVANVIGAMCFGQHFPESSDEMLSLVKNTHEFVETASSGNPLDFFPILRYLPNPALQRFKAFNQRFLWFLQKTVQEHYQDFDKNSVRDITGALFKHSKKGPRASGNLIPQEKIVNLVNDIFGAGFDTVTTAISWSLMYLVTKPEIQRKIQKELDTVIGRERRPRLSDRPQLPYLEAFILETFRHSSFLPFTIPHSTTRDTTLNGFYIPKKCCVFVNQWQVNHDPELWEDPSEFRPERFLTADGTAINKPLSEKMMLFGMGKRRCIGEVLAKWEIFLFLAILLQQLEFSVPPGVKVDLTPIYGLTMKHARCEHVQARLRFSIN

[25] = biological target: Beta Lactamase (Pseudomonas aeruginosa, UniProt Q932Y6); assay: beta-lactamase reporter inhibitor potency, dose response, artefact control for TLR9-MyD88 binding inhibitor project, BLA reporter cells, FRET fluorescence (AID 588341); type: cell-based;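 note: cell based assay in CHO-K1 cells stably expressing beta-lactamase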
Beta Lactamase, sequence (Q932Y6 whole entry, the tested form may be a part): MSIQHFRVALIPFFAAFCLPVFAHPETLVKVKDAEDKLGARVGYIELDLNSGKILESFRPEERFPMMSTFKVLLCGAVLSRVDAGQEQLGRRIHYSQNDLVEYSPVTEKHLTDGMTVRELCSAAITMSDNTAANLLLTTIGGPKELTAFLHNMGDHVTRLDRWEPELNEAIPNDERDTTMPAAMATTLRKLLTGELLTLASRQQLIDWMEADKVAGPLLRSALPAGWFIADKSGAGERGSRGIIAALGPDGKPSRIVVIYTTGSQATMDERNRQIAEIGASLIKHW

[26] = test system: CHO; assay: cytotoxicity in TLR9-MyD88 CHO cells, dose response, cytotoxicity control for TLR9-MyD88 binding inhibitor project, cell-based, luminescence (AID 588339); type: functional, hamster; conditions: Cricetulus griseus;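 note: CHO cells stably coexpressing TLR9 and MyD88 fusions from primary screen; compound exposure lasted 48 hours before viability readout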

COC(=O)c1cc(OC)c(OC)cc1NC(=O)c1ccco1
IC50 [1]: 38.9 µM (active) | EC50 [2]: > 53 µM (inactive) | IC50 [3]: > 20 µM (inactive)

CCCCNC(=O)Cc1coc2ccc3ccccc3c12
AC50 [4]: inconclusive

CCN1C(=O)CS/C1=C(\C#N)S(=O)(=O)c1ccccc1
IC50 [5]: > 100 µM (active)

COc1ccccc1C1c2c(C)nn(-c3ccccc3)c2NC(=O)C1NC(=O)c1ccccc1 (stereo unspecified)
AC50 [6]: 23.5 µM (active)

CO[C@@H]1CN(C)C(=O)c2cc(NC(=O)NC(C)C)ccc2OC[C@H](C)N(Cc2cncnc2)C[C@H]1C
AC50 [7]: 0.472 µM (active)

Cc1ccc(/N=N/c2c(C)[nH]n(C(N)=S)c2=O)cc1C
EC50 [8]: > 67.5 µM (inactive) | EC50 [9]: > 67.5 µM (inactive) | CC50 [10]: > 20 µM (active) | IC50 [11]: 10.1 µM (active)

Cc1cc2n(n1)C(c1cn(-c3ccccc3)nc1C)Nc1c(C)cccc1-2 (stereo unspecified)
AC50 [7]: 0.562 µM (active)

NC(=O)CC(NC(=O)c1ccc(Br)cc1)c1ccc(N2CCCCCC2)c([N+](=O)[O-])c1 (stereo unspecified)
AC50 [12]: 15.4 µM (active) | AC50 [13]: 26.6 µM (active) | EC50 [14]: 38.3 µM (active) | AC50 [15]: 7.66 µM (active) | IC50 [16]: > 80 µM (inactive) | AC50 [17]: > 70 µM (inactive)

Cc1ccc(Cc2c(-c3ccc(Br)cc3)nc3cc(C)ccn23)cc1
IC50 [18]: > 67.5 µM (inactive) | IC50 [19]: > 67.5 µM (inactive)

COc1ccc(/C=C/C(=O)Nc2c(C)nn(C)c2C)cc1COc1ccc(Br)cc1
IC50 [1]: 16.1 µM (active) | EC50 [2]: > 53 µM (inactive) | IC50 [3]: > 20 µM (inactive)

COc1ccccc1C#Cc1ccc2c(c1)O[C@@H](CN(C)Cc1cccnc1)[C@H](C)CN([C@@H](C)CO)S2(=O)=O
AC50 [6]: 2.25 µM (active)

FC(F)(F)c1cccc(NC(=S)Nc2cccc(Cl)c2)c1
AC50 [4]: inconclusive | AC50 [20]: 25.1 µM (inconclusive) | AC50 [21]: 28.2 µM (inconclusive)

CCOC(=O)CSc1nnc(-c2ccccc2NC(=O)c2ccccc2)o1
IC50 [5]: > 100 µM (active)

CC(=O)Nc1c(O)nc(SCC(=O)Nc2ccc(C(C)=O)cc2)nc1O
IC50 [5]: > 100 µM (active)

Cc1noc(C)c1-c1nccc(NC2CC2)n1
AC50 [4]: inconclusive | AC50 [21]: 31.6 µM (inconclusive)

c1ccc2c(c1)OCCOCCOCCOCCOc1ccccc1OCCOCCOCCO2
IC50 [1]: 7.94 µM (active) | EC50 [2]: 15.4 µM (active) | IC50 [3]: > 20 µM (inactive)

N#Cc1c(C#N)c(SSc2c(C#N)c(C#N)c(N)n2-c2ccccc2)n(-c2ccccc2)c1N
IC50 [22]: > 80 µM (inactive)

C=C1[C@@H](C)C2[C@H](Cc3ccccc3)NC(=O)[C@]23[C@H](OC(C)=O)/C=C/[C@@](C)(O)C(=O)[C@@H](C)C/C=C/[C@H]3[C@@H]1O (stereo partly specified)
IC50 [18]: 14 µM (inactive) | IC50 [19]: > 67.5 µM (inactive)

Cc1cc(C)c(C)c(S(=O)(=O)Nc2ccccc2C(=O)O)c1C
IC50 [1]: 16.3 µM (active) | EC50 [2]: > 53 µM (inactive) | IC50 [3]: > 20 µM (inactive)

CCc1c(C)sc(NC(=O)c2cc(-c3ccco3)on2)c1C#N
IC50 [5]: > 100 µM (active)

Cc1[nH]n(C(N)=S)c(=O)c1/N=N/c1ccc(Br)cc1
EC50 [8]: > 67.5 µM (inactive) | EC50 [9]: > 67.5 µM (inactive)

Clc1ccc(Cl)c(Oc2ccc(Oc3nc(Cl)ccc3Cl)cc2)n1
IC50 [1]: 0.727 µM (active) | EC50 [2]: > 53 µM (inactive) | IC50 [3]: 11.4 µM (active)

C/C(=N/NC(=O)c1ccc2c(c1)OCO2)c1ccc(NC(=O)c2ccc(F)cc2)cc1
IC50 [18]: > 67.5 µM (inactive) | IC50 [19]: > 67.5 µM (inactive)

O=C(c1sc2ccccc2c1Cl)N1CCN(c2ccc(F)cc2)CC1
AC50 [23]: 0.0891 µM (inconclusive) | AC50 [4]: inconclusive | AC50 [24]: 2.82 µM (inconclusive)

O=C1C(=Cc2ccccc2Cl)CCc2ccccc21
IC50 [18]: > 67.5 µM (inactive) | IC50 [19]: > 67.5 µM (inactive)

O=C1C=CC(=O)N1c1ccc2c(c1)C(NC(=O)C(F)(F)F)c1ccccc1-2 (stereo unspecified)
IC50 [22]: > 80 µM (inactive) | IC50 [25]: 14.5 µM (inactive) | IC50 [26]: 1.91 µM (active)
